Source: patent publication US9278958B2, “Anti-cancer compounds” (KATHOLIEKE UNIVERSITEIT LEUVEN, priority 2012, dated 2016)
Read-outs that look alike come from different tables or passages of the source.

Assays:
[1] = tested on: THP-1, human monocytic cells; assay: Cytostatic assay, THP-1; format: cell-based; conditions: Table 2
In short: (§1)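 Cells (5-7.5×10^4/well) + test compound; growth 48–96 h (line-dependent), 37° C, humidified CO2 atmosphere; endpoint Coulter count.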

[2] = tested on: PC3 (rega) prostate cancer cells; assay: Cytostatic assay, PC3 (rega); format: cell-based; conditions: Table 4
In short: as §1

[3] = tested on: HeLa cervix carcinoma cells; assay: Cytostatic assay, HeLa; format: cell-based, human; conditions: Homo sapiens; Table 3; read-out: Cytostatic activity (μM) Hela
In short: as §1

[4] = tested on: RNA synthesis in CEM cells; assay: Antimetabolic activity assay, [5-3H]uridine incorporation (RNA synthesis), CEM; format: cell-based; conditions: Homo sapiens, CCRF-CEM, incorporation into TCA-insoluble material
Method: (§2) Radiolabeled precursors of DNA synthesis ([^3H-methyl]dThd), RNA synthesis ([5-^3H]Urd), and protein synthesis ([4,5-^3H]leu) were added to 10^5 CEM cell cultures in the 200 μl-wells of a microtiter plate at 1 μCi for each precursor in the presence of varying concentrations of the test compounds (5-fold dilution series). The cells were allowed to proliferate for 20 hrs at 37° C. in a humidified, CO2-controlled atmosphere. At the end of the incubation period, the contents of the wells were brought onto 25-mm glass fiber filters and further processed for measurement of acid-insoluble radioactivity.

[5] = tested on: FM3A mammary carcinoma cells; assay: Cytostatic assay, FM3A; format: cell-based, murine; conditions: Mus musculus, Table 3
In short: as §1

[6] = tested on: DU145 (UZ) prostate cancer cells; assay: Cytostatic assay, DU145 (UZ); format: cell-based; conditions: Homo sapiens, DU-145; Table 4
In short: as §1

[7] = tested on: PC-3 (UZ) prostate cancer cells; assay: Cytostatic assay, PC-3 (UZ); format: cell-based; conditions: Table 4
In short: as §1

[8] = tested on: HT29 colorectal carcinoma cells; assay: Cytostatic assay, HT29; format: cell-based; conditions: Homo sapiens, HT-29; Table 3
In short: as §1

[9] = tested on: MT-2 cells; assay: Cytostatic assay, MT-2; format: cell-based; conditions: Homo sapiens, MT2; Table 2
In short: as §1

[10] = tested on: MCF-7 mammary carcinoma cells; assay: Cytostatic assay, MCF-7; format: cell-based; conditions: Homo sapiens, MCF7; Table 3
In short: as §1

[11] = tested on: Caki-1 kidney carcinoma cells; assay: Cytostatic assay, Caki-1; format: cell-based; conditions: Homo sapiens, Table 3
In short: as §1

[12] = tested on: Huh-7 hepatoma cells; assay: Cytostatic assay, Huh-7; format: cell-based; conditions: Homo sapiens, Table 4
In short: as §1

[13] = tested on: 22Rv1 (UZ) prostate cancer cells; assay: Cytostatic assay, 22Rv1 (UZ); format: cell-based; conditions: Homo sapiens, Table 4
In short: as §1

[14] = tested on: LNCaP (UZ) prostate cancer cells; assay: Cytostatic assay, LNCaP (UZ); format: cell-based; conditions: Homo sapiens, Table 4
In short: as §1

[15] = tested on: BPH-1 (UZ); assay: Cytostatic assay, BPH-1 (UZ); format: cell-based; conditions: Homo sapiens, Table 4
In short: as §1

[16] = tested on: Molt4/C8 cells; assay: Cytostatic assay, Molt4/C8; format: cell-based; conditions: Table 2
In short: as §1

[17] = tested on: OST TK- osteosarcoma cells; assay: Cytostatic assay, OST TK-; format: cell-based; conditions: Homo sapiens; Table 3
In short: as §1

[18] = tested on: Caki-2 kidney carcinoma cells; assay: Cytostatic assay, Caki-2; format: cell-based; conditions: Homo sapiens, Table 3
In short: as §1

[19] = tested on: HL60, human leukemia cells; assay: Cytostatic assay, HL-60; format: cell-based; conditions: Table 2
In short: as §1

[20] = tested on: HEL embryonic lung fibroblast cells; assay: Cytostatic assay, HEL; format: cell-based; conditions: Homo sapiens, Table 3
In short: as §1

[21] = tested on: PLC/PRF/5 hepatoma cells; assay: Cytostatic assay, PLC/PRF/5; format: cell-based; conditions: Homo sapiens, Table 4
In short: as §1

[22] = tested on: 293T embryonic kidney cells; assay: Cytostatic assay, 293T; format: cell-based; conditions: Homo sapiens, HEK-293T; Table 3
In short: as §1

[23] = tested on: PNT1A (UZ) prostate cells; assay: Cytostatic assay, PNT1A (UZ); format: cell-based; conditions: Homo sapiens, Table 4
In short: as §1

[24] = tested on: DNA synthesis in CEM cells; assay: Antimetabolic activity assay, [CH3-3H]dThd incorporation (DNA synthesis), CEM; format: cell-based; conditions: Homo sapiens, CCRF-CEM, incorporation into TCA-insoluble material
Method: as §2

[25] = tested on: protein synthesis in CEM cells; assay: Antimetabolic activity assay, [4,5-3H]leucine incorporation (protein synthesis), CEM; format: cell-based; conditions: Homo sapiens, CCRF-CEM, incorporation into TCA-insoluble material
Method: as §2

[26] = tested on: protein synthesis in Raji cells; assay: Antimetabolic activity assay, [4,5-3H]leucine incorporation (protein synthesis), Raji; format: cell-based; conditions: Homo sapiens, incorporation into TCA-insoluble material
Method: [The procedure below names another cell line; the source lists this cell line under the same test.] as §2

[27] = tested on: CEM cells; assay: Cytostatic assay, CEM; format: cell-based; conditions: Homo sapiens, CCRF-CEM
In short: as §1

[28] = tested on: HUT-78 cells; assay: Cytostatic assay, HUT-78; format: cell-based; conditions: Homo sapiens, HuT78; Table 2
In short: as §1

[29] = tested on: HepG2C3A hepatoma cells; assay: Cytostatic assay, HepG2C3A; format: cell-based; conditions: Homo sapiens, HepG2/C3A; Table 4
In short: as §1

[30] = tested on: U87 glioma cells; assay: Cytostatic assay, U87; format: cell-based; conditions: Homo sapiens, U-87 MG; Table 3
In short: as §1

[31] = tested on: MT-4 cells; assay: Cytostatic assay, MT-4; format: cell-based; conditions: Homo sapiens, MT4; Table 2
In short: as §1

[32] = tested on: Raji, human B-lymphoma cells; assay: Cytostatic assay, Raji; format: cell-based; conditions: Table 2
In short: as §1

[33] = tested on: Sup T1 cells; assay: Cytostatic assay, Sup T1; format: cell-based; conditions: Homo sapiens, Table 2, read-out: Cytostatic activity (μM) Sup T 1
In short: as §1

[34] = tested on: L1210 cells; assay: Cytostatic assay, L1210; format: cell-based; conditions: Mus musculus, Table 2
In short: as §1

[35] = tested on: BAEC aortic endothelial cells; assay: Cytostatic assay, BAEC; format: cell-based, bovine; conditions: Bos taurus, Table 3
In short: as §1

[36] = tested on: U937, human monocytic cells; assay: Cytostatic assay, U937; format: cell-based; conditions: U-937, Table 2
In short: as §1

[37] = tested on: RNA synthesis in Raji cells; assay: Antimetabolic activity assay, [5-3H]uridine incorporation (RNA synthesis), Raji; format: cell-based; conditions: Homo sapiens, incorporation into TCA-insoluble material
Method: [The procedure below names another cell line; the source lists this cell line under the same test.] as §2

[38] = tested on: C8166 cells; assay: Cytostatic assay, C8166; format: cell-based; conditions: Homo sapiens, Table 2
In short: as §1

[39] = tested on: DNA synthesis in Raji cells; assay: Antimetabolic activity assay, [CH3-3H]dThd incorporation (DNA synthesis), Raji; format: cell-based; conditions: Homo sapiens, incorporation into TCA-insoluble material
Method: [The procedure below names another cell line; the source lists this cell line under the same test.] as §2

[40] = Table 1a, read-out: IC50 μM (CEM)
[41] = Table 2, read-out: Cytostatic activity (μM) CEM

CCOC(=O)c1cc(-c2ccc(OC)cc2)sc1N [TR525, 2-Amino-5-(4-methoxy-phenyl)-thiophene-3-carboxylic acid ethyl ester]
IC50 [1]: 102 ± 2.8 µM | IC50 [2]: 13 ± 9.6 µM | IC50 [3]: 39 ± 4 µM | IC50 [4]: 12 ± 5 µM | IC50 [5]: 49 ± 6 µM | IC50 [6]: 41 ± 24 µM | IC50 [7]: 20 ± 3.5 µM | IC50 [8]: 93 ± 11 µM | IC50 [9]: 52 ± 5.7 µM | IC50 [10]: 81 ± 4.9 µM | IC50 [11]: 83 ± 36 µM | IC50 [12]: > 100 µM | IC50 [13]: 16 ± 5.5 µM | IC50 [14]: 2.3 ± 0.071 µM | IC50 [15]: 36 ± 1.4 µM | IC50 [16]: 18 ± 2.1 µM | IC50 [17]: 79 ± 2.8 µM | IC50 [18]: 159 ± 19 µM | IC50 [19]: 62 ± 9.9 µM | IC50 [20]: 43 ± 9.9 µM | IC50 [21]: > 100 µM | IC50 [22]: > 100 µM | IC50 [23]: 42 ± 5.7 µM | IC50 [24]: 15 ± 3 µM | IC50 [25]: 6.2 ± 7.6 µM | IC50 [26]: ≥ 100 µM | IC50 [27, 40]: 40 µM | IC50 [27, 41]: 40 ± 1 µM | IC50 [28]: 117 ± 21 µM | IC50 [29]: > 100 µM | IC50 [30]: 90 ± 14 µM | IC50 [31]: > 100 µM | IC50 [32]: > 100 µM | IC50 [33]: 86 ± 7.1 µM | IC50 [34]: 44 ± 3 µM | IC50 [35]: 74 ± 26 µM | IC50 [36]: 115 ± 19 µM | IC50 [37]: 82 ± 26 µM | IC50 [38]: 102 ± 16 µM | IC50 [39]: ≥ 100 µM

CCOC(=O)c1cc(CCc2ccccc2OC)sc1N [TR542, 2-Amino-5-[2-(2-methoxy-phenyl)-ethyl]-thiophene-3-carboxylic acid ethyl ester]
IC50 [1]: 31 ± 13 µM | IC50 [2]: 8.6 ± 3.4 µM | IC50 [3]: 45 ± 6 µM | IC50 [4]: 39 ± 32 µM | IC50 [5]: 53 ± 7 µM | IC50 [6]: 34 ± 7.1 µM | IC50 [7]: 8.5 ± 3.5 µM | IC50 [8]: > 100 µM | IC50 [9]: 79 ± 17 µM | IC50 [10]: 60 ± 0.7 µM | IC50 [11]: 62 ± 12 µM | IC50 [12]: 28 ± 17 µM | IC50 [13]: 33 ± 0.71 µM | IC50 [14]: 3.8 ± 2.9 µM | IC50 [15]: 74 ± 4.2 µM | IC50 [16]: 6.8 µM | IC50 [17]: 41 ± 0.71 µM | IC50 [18]: 16 ± 10 µM | IC50 [19]: 11 ± 2.2 µM | IC50 [20]: 43 ± 4.9 µM | IC50 [21]: 39 ± 5.7 µM | IC50 [22]: > 100 µM | IC50 [23]: 45 µM | IC50 [24]: 68 ± 14 µM | IC50 [25]: 23 ± 14 µM | IC50 [26]: 94 ± 7 µM | IC50 [27, 41]: 20 ± 4 µM | IC50 [28]: 107 ± 70 µM | IC50 [29]: 30 ± 0.71 µM | IC50 [30]: > 100 µM | IC50 [31]: 41 ± 5.7 µM | IC50 [32]: 55 ± 12 µM | IC50 [33]: 23 ± 2.1 µM | IC50 [34]: 40 µM | IC50 [35]: > 100 µM | IC50 [36]: 80 ± 5.7 µM | IC50 [37]: ≥ 100 µM | IC50 [38]: 143 ± 32 µM | IC50 [39]: ≥ 100 µM

COc1ccccc1CCc1cc(C#N)c(N)s1 [TR585, 2-Amino-5-[2-(2-methoxy-phenyl)-ethyl]-thiophene-3-carbonitrile]
IC50 [1]: 3.8 ± 0.6 µM | IC50 [2]: 1.7 ± 0.35 µM | IC50 [3]: 8.3 ± 1.5 µM | IC50 [4]: ≥ 100 µM | IC50 [5]: 25 ± 0.71 µM | IC50 [6]: 6.4 ± 1.8 µM | IC50 [7]: 2.6 ± 0.64 µM | IC50 [8]: 8.9 ± 0.92 µM | IC50 [9]: 4.75 ± 0.08 µM | IC50 [10]: 5.42 ± 0.69 µM | IC50 [11]: 4.6 ± 1.3 µM | IC50 [12]: 8.3 ± 0.78 µM | IC50 [13]: 9.4 ± 5.8 µM | IC50 [14]: 2.7 ± 0.95 µM | IC50 [15]: 7 ± 0.42 µM | IC50 [16]: 2 ± 0.2 µM | IC50 [17]: 3.96 ± 1.56 µM | IC50 [18]: 4.8 ± 4.5 µM | IC50 [19]: 3.5 ± 0.57 µM | IC50 [20]: 7.2 ± 0.49 µM | IC50 [21]: 6.7 ± 0.64 µM | IC50 [22]: 10 ± 0.071 µM | IC50 [23]: 8 ± 0.42 µM | IC50 [24]: > 100 µM | IC50 [25]: 11 ± 8 µM | IC50 [26]: ≥ 100 µM | IC50 [27, 40]: 8.3 µM | IC50 [27, 41]: 8.3 ± 2.4 µM | IC50 [28]: 7.1 ± 1.3 µM | IC50 [29]: 7.2 ± 4 µM | IC50 [30]: 10 ± 0.78 µM | IC50 [31]: 8.1 ± 0.78 µM | IC50 [32]: 13 ± 3.5 µM | IC50 [33]: 4.7 ± 0.38 µM | IC50 [34]: 15 ± 4 µM | IC50 [35]: 9.7 ± 1.8 µM | IC50 [36]: 3.4 ± 2.8 µM | IC50 [37]: ≥ 100 µM | IC50 [38]: 16 ± 6.5 µM | IC50 [39]: ≥ 100 µM
